Where two headings read alike, the source gives them in different places.
Key:
[1] = CSF concentration of Compound 2 in PD participants (LC-MS/MS); format: in vivo, human; details: for CSF concentration, mean: week 4, 2-4 h postdose; for CSF concentration, Fold increase vs low dose: week 4
Procedure: (§1) Participants were randomised to 3 doses of once-daily orally administered Compound 2 or placebo, in sequential cohort design, and were followed up to 36 weeks (52 weeks for Japanese participants). Participants in the low-dose group received 4 mg of Compound 2 as a once daily oral dose; participants in the mid-dose group received 8 mg of Compound 2 a once daily oral dose; and participants in the high-dose group received 15 mg of Compound 2 a once daily oral dose.
(§2) The secondary outcome was to evaluate the pharmacokinetic profile of Compound 2 in plasma and cerebrospinal fluid (CSF) over a 4-week period. Plasma pharmacokinetic parameters included maximum plasma concentration (Cmax), time to Cmax (tmax), and area under the plasma concentration versus time curve from 0 to 24 h (AUC0-24). All parameters were assessed at Week 0 and Week 4 after treatment. In addition, AUC0-48 was assessed at Week 0, trough plasma concentration observed just before treatment administration during repeated dosing (Ctrough) was assessed at Weeks 2, 4, and 8 (FIG. 3), and total systemic clearance from plasma at steady state (CLSS/F) was assessed at Week 4. Plasma samples were collected at 1 hour pre-dose and 1, 2, 4, 8, 24, and 48 hours postdose. Compound 2 concentration in plasma was determined using a liquid chromatography tandem mass spectrometry method with a lower limit of quantification of 0.500 ng/mL. CSF samples were collected by lumbar puncture during the screening period (within 14 days prior to randomisation) or on the day of randomisation, and at Week 4, within 2 to 4 hours postdose. Compound 2 concentration in CSF was determined using a liquid chromatography tandem mass spectrometry method with a lower limit of quantification of 0.100 ng/mL.

[2] = Plasma pharmacokinetics of Compound 2 in PD participants (LC-MS/MS); format: in vivo, human
Procedure: as §1
Analyses were based on all available data from participants who enrolled in part 1 of the trial and were randomised to receive either Compound 2 or placebo for up to 52 weeks for Japanese participants and 36 weeks for the ROW population. As part 1 was an exploratory, dose-escalation study, the sample size was not based on a statistical power calculation. Participants included in the primary safety analyses were those who were randomized and received at least one dose of Compound 2 or placebo. A data monitoring committee was responsible for overseeing the safety of patients and the risk/benefit ratio throughout the study. Duration of exposure to Compound 2 was different among the doses, as per the sequential cohort design, with the low- and high-dose cohorts commencing the study first and last, respectively. For pharmacokinetics, plasma parameters were calculated using noncompartmental methods, from plasma Compound 2 concentrations obtained after single dose administration. AUC0-24 and AUC0-48 were calculated using the trapezoidal method over a predefined time period of 24 hours or 48 hours, respectively. CLss/F was calculated using the following equation: CLss/F=Dose/AUCτ, where τ is the dosing interval. For pharmacodynamics, percent reduction of plasma or CSF GL-1 from baseline was calculated as (value−baseline)/baseline×100. Formal statistical testing was not conducted on MDS-UPDRS scale assessments.
as §2

[3] = Japanese and ROW cohorts, 4, 8, 15 mg

Q: What does the source list for `CC(C)(NC(=O)O[C@@H]1CN2CCC1CC2)c1csc(-c2ccc(F)cc2)n1` [Compound 2, (S)-quinuclidin-3-yl (2-(2-(4-fluorophenyl)thiazol-4-yl)propan-2-yl)carbamate]?
A: CSF concentration, mean ([1]; Japan, High 15 mg once daily oral, n = 3): 10.1 ng/mL; CSF concentration, mean ([1]; Japan, Low 4 mg once daily oral, n = 3): 2.11 ng/mL; CSF concentration, mean ([1]; Japan, Mid 8 mg once daily oral, n = 3): 4.33 ng/mL; CSF concentration, mean ([1]; ROW, High 15 mg once daily oral, sample not collected for 1 of n = 4): 5.96 ng/mL; CSF concentration, mean ([1]; ROW, Low 4 mg once daily oral, 1 of n = 4 not included): 1.85 ng/mL; CSF concentration, mean ([1]; ROW, Mid 8 mg once daily oral, 2 of n = 5 not included): 3.15 ng/mL; CSF concentration, Fold increase vs low dose ([1]; Japan, High 15 mg vs Low 4 mg): 4.79 fold; CSF concentration, Fold increase vs low dose ([1]; Japan, Mid 8 mg vs Low 4 mg): 2.05 fold; CSF concentration, Fold increase vs low dose ([1]; ROW, High 15 mg vs Low 4 mg): 3.22 fold; CSF concentration, Fold increase vs low dose ([1]; ROW, Mid 8 mg vs Low 4 mg): 1.70 fold; increase of Compound 2 concentration in CSF with dose [1, 3]: close to dose-proportional manner; increase of Compound 2 concentration in plasma with dose [2, 3]: close to dose-proportional manner; Tmax ([2]; human, plasma, oral, plasma, Week 4, Japanese participants, across all doses tested, read-out: median tmax values): 2.1 to 4.33 h; Tmax ([2]; human, plasma, oral, plasma, Week 4, ROW participants, across all doses tested, read-out: median tmax values): 1.96 to 3.55 h; Cmax at 4 weeks ([2]; human, plasma, po, 4 mg, Week 4, Japan, Low 4 mg once daily oral, n = 3): 56.3 ng/mL; AUC(0-t) ([2]; human, plasma, po, 4 mg, plasma, Day 1, Japan, Low 4 mg oral, n = 3, read-out: AUC0-24, Geometric mean): 390 ng·h/mL; AUC(0-t) ([2]; human, plasma, po, 4 mg, plasma, Day 1, Japan, Low 4 mg oral, n = 3, read-out: AUC0-24, mean): 393 ng·h/mL; AUC(0-t) ([2]; human, plasma, po, 4 mg, plasma, Day 1, Japan, Low 4 mg oral, n = 3, read-out: AUC0-48, Geometric mean): 660 ng·h/mL; AUC(0-t) ([2]; human, plasma, po, 4 mg, plasma, Day 1, Japan, Low 4 mg oral, n = 3, read-out: AUC0-48, mean): 661 ng·h/mL; Cmax ([2]; human, plasma, po, 4 mg, plasma, Day 1, Japan, Low 4 mg oral, n = 3, read-out: Cmax, Geometric mean): 21.7 ng/mL; Cmax ([2]; human, plasma, po, 4 mg, plasma, Day 1, Japan, Low 4 mg oral, n = 3, read-out: Cmax, mean): 21.8 ng/mL; Tmax ([2]; human, plasma, po, 4 mg, plasma, Day 1, Japan, Low 4 mg oral, n = 3, read-out: tmax, median): 4.33 h; AUC(0-t) ([2]; human, plasma, po, 4 mg, plasma, Day 1, ROW, Low 4 mg oral, n = 4, read-out: AUC0-24, Geometric mean): 249 ng·h/mL; AUC(0-t) ([2]; human, plasma, po, 4 mg, plasma, Day 1, ROW, Low 4 mg oral, n = 4, read-out: AUC0-24, mean): 255 ng·h/mL; AUC(0-t) ([2]; human, plasma, po, 4 mg, plasma, Day 1, ROW, Low 4 mg oral, n = 4, read-out: AUC0-48, Geometric mean): 419 ng·h/mL; AUC(0-t) ([2]; human, plasma, po, 4 mg, plasma, Day 1, ROW, Low 4 mg oral, n = 4, read-out: AUC0-48, mean): 431 ng·h/mL; Cmax ([2]; human, plasma, po, 4 mg, plasma, Day 1, ROW, Low 4 mg oral, n = 4, read-out: Cmax, Geometric mean): 13.6 ng/mL; Cmax ([2]; human, plasma, po, 4 mg, plasma, Day 1, ROW, Low 4 mg oral, n = 4, read-out: Cmax, mean): 13.8 ng/mL; Tmax ([2]; human, plasma, po, 4 mg, plasma, Day 1, ROW, Low 4 mg oral, n = 4, read-out: tmax, median): 4.07 h; AUC(0-t) ([2]; human, plasma, po, 4 mg, plasma, Week 4, Japan, Low 4 mg once daily oral, n = 1, read-out: AUC0-24, Geometric mean): 1130 ng·h/mL; AUC(0-t) ([2]; human, plasma, po, 4 mg, plasma, Week 4, Japan, Low 4 mg once daily oral, n = 1, read-out: AUC0-24, mean): 1130 ng·h/mL; Cmax ([2]; human, plasma, po, 4 mg, plasma, Week 4, Japan, Low 4 mg once daily oral, n = 3, read-out: Cmax, Geometric mean): 56.2 ng/mL; Tmax ([2]; human, plasma, po, 4 mg, plasma, Week 4, Japan, Low 4 mg once daily oral, n = 3, read-out: tmax, median): 4.33 h; AUC(0-t) ([2]; human, plasma, po, 4 mg, plasma, Week 4, ROW, Low 4 mg once daily oral, n = 4, read-out: AUC0-24, Geometric mean): 763 ng·h/mL; AUC(0-t) ([2]; human, plasma, po, 4 mg, plasma, Week 4, ROW, Low 4 mg once daily oral, n = 4, read-out: AUC0-24, mean): 766 ng·h/mL; Cmax ([2]; human, plasma, po, 4 mg, plasma, Week 4, ROW, Low 4 mg once daily oral, n = 4, read-out: Cmax, Geometric mean): 41 ng/mL; Cmax ([2]; human, plasma, po, 4 mg, plasma, Week 4, ROW, Low 4 mg once daily oral, n = 4, read-out: Cmax, mean): 41.6 ng/mL; Tmax ([2]; human, plasma, po, 4 mg, plasma, Week 4, ROW, Low 4 mg once daily oral, n = 4, read-out: tmax, median): 1.96 h; AUC(0-t) ([2]; human, plasma, po, 8 mg, plasma, Day 1, Japan, Mid 8 mg oral, n = 3, read-out: AUC0-24, Geometric mean): 596 ng·h/mL; AUC(0-t) ([2]; human, plasma, po, 8 mg, plasma, Day 1, Japan, Mid 8 mg oral, n = 3, read-out: AUC0-24, mean): 623 ng·h/mL; AUC(0-t) ([2]; human, plasma, po, 8 mg, plasma, Day 1, Japan, Mid 8 mg oral, n = 3, read-out: AUC0-48, Geometric mean): 1070 ng·h/mL; AUC(0-t) ([2]; human, plasma, po, 8 mg, plasma, Day 1, Japan, Mid 8 mg oral, n = 3, read-out: AUC0-48, mean): 1130 ng·h/mL; Cmax ([2]; human, plasma, po, 8 mg, plasma, Day 1, Japan, Mid 8 mg oral, n = 3, read-out: Cmax, Geometric mean): 29.9 ng/mL; Cmax ([2]; human, plasma, po, 8 mg, plasma, Day 1, Japan, Mid 8 mg oral, n = 3, read-out: Cmax, mean): 31.3 ng/mL; Tmax ([2]; human, plasma, po, 8 mg, plasma, Day 1, Japan, Mid 8 mg oral, n = 3, read-out: tmax, median): 4.02 h; AUC(0-t) ([2]; human, plasma, po, 8 mg, plasma, Day 1, ROW, Mid 8 mg oral, n = 5, read-out: AUC0-24, Geometric mean): 422 ng·h/mL; AUC(0-t) ([2]; human, plasma, po, 8 mg, plasma, Day 1, ROW, Mid 8 mg oral, n = 5, read-out: AUC0-24, mean): 457 ng·h/mL; AUC(0-t) ([2]; human, plasma, po, 8 mg, plasma, Day 1, ROW, Mid 8 mg oral, n = 5, read-out: AUC0-48, Geometric mean): 735 ng·h/mL; AUC(0-t) ([2]; human, plasma, po, 8 mg, plasma, Day 1, ROW, Mid 8 mg oral, n = 5, read-out: AUC0-48, mean): 776 ng·h/mL; Cmax ([2]; human, plasma, po, 8 mg, plasma, Day 1, ROW, Mid 8 mg oral, n = 5, read-out: Cmax, Geometric mean): 23.8 ng/mL; Cmax ([2]; human, plasma, po, 8 mg, plasma, Day 1, ROW, Mid 8 mg oral, n = 5, read-out: Cmax, mean): 26.3 ng/mL; Tmax ([2]; human, plasma, po, 8 mg, plasma, Day 1, ROW, Mid 8 mg oral, n = 5, read-out: tmax, median): 4.17 h; AUC(0-t) ([2]; human, plasma, po, 8 mg, plasma, Week 4, Japan, Mid 8 mg once daily oral, n = 3, read-out: AUC0-24, Geometric mean): 1620 ng·h/mL; AUC(0-t) ([2]; human, plasma, po, 8 mg, plasma, Week 4, Japan, Mid 8 mg once daily oral, n = 3, read-out: AUC0-24, mean): 1650 ng·h/mL; Cmax ([2]; human, plasma, po, 8 mg, plasma, Week 4, Japan, Mid 8 mg once daily oral, n = 3, read-out: Cmax, Geometric mean): 82.8 ng/mL
